Values quoted from earlier work in patent US20070259329A1, “Anergy-inducing cellular composition” (BioVerde. Inc., priority 2006, published 2007).
Where two headings read alike, the source gives them in different places.

How the values were obtained:
T-cells = settings: Sanbongi et al. (1997); cited from earlier work
[1] = tested on: antibody-stimulated peripheral blood mononuclear cells; settings: Falchetti et al. (2001), cited from earlier work

Compound | proliferative responses of T-cells (T-cells) | cytokine productions ([1]; low concentrations (5-10 ppm)) | cytokine productions ([1]; still lower concentrations (0.625-2.5 ppm))
Oc1cc(O)c2c(c1)O[C@H](c1ccc(O)c(O)c1)[C@H](O)C2 [(−)-epicatechin] | inhibited |  | 
Oc1ccc(C=Cc2cc(O)cc(O)c2)cc1 [resveratrol] |  | inhibited | enhanced
